The NIST ThermoML archive (doi:10.1016/j.jct.2016.10.023)

Test: xn = mol fraction of the nth substance listed
Details: Constant-volume piezometry

CCCCC [pentane] + CCCO
mass density [kg/m3]
Details | Fluid (supercritical or subcritical phases) | Gas
518.15 K, 4877 kPa, x1 = 0.2 | 220.15 | –
518.15 K, 4965 kPa, x1 = 0.2 | 259.26 | –
518.15 K, 4994 kPa, x1 = 0.2 | 272.43 | –
518.15 K, 5010 kPa, x1 = 0.2 | 290.61 | –
523.15 K, 954 kPa, x1 = 0.5 | – | 15.52
523.15 K, 1314 kPa, x1 = 0.8 | – | 22.52
523.15 K, 1549 kPa, x1 = 0.2 | – | 24.93
523.15 K, 1732 kPa, x1 = 0.5 | – | 29.98
523.15 K, 1978 kPa, x1 = 0.8 | – | 36.69
523.15 K, 2284 kPa, x1 = 0.5 | – | 40.49
523.15 K, 2704 kPa, x1 = 0.5 | – | 51.09
523.15 K, 2890 kPa, x1 = 0.8 | – | 58.41
523.15 K, 3111 kPa, x1 = 0.2 | – | 53.01
523.15 K, 3416 kPa, x1 = 0.5 | – | 67.52
523.15 K, 3421 kPa, x1 = 0.8 | – | 73.79
523.15 K, 3614 kPa, x1 = 0.5 | – | 72.6
523.15 K, 3631 kPa, x1 = 0.9 | 83.38 | –
523.15 K, 4037 kPa, x1 = 0.2 | – | 91.41
523.15 K, 4041 kPa, x1 = 0.5 | – | 88.91
523.15 K, 4261 kPa, x1 = 0.5 | – | 95.85
523.15 K, 4356 kPa, x1 = 0.8 | 106.4 | –
523.15 K, 4459 kPa, x1 = 0.2 | 114.35 | 114.35
523.15 K, 4600 kPa, x1 = 0.9 | 123.35 | –
523.15 K, 4817 kPa, x1 = 0.9 | 134.12 | –
523.15 K, 4864 kPa, x1 = 0.2 | 150.34 | –
523.15 K, 4871 kPa, x1 = 0.5 | 121.89 | –
523.15 K, 5043 kPa, x1 = 0.2 | 175.61 | –
523.15 K, 5108 kPa, x1 = 0.2 | 189.64 | –
523.15 K, 5158 kPa, x1 = 0.8 | 140.3 | –
523.15 K, 5206 kPa, x1 = 0.5 | 144.11 | –
523.15 K, 5208 kPa, x1 = 0.2 | 220.1 | –
523.15 K, 5292 kPa, x1 = 0.2 | 245.47 | –
523.15 K, 5316 kPa, x1 = 0.9 | 163.95 | –
523.15 K, 5328 kPa, x1 = 0.2 | 259.2 | –
523.15 K, 5343 kPa, x1 = 0.2 | 262.9 | –
523.15 K, 5359 kPa, x1 = 0.5 | 154.49 | –
523.15 K, 5364 kPa, x1 = 0.2 | 272.36 | –
523.15 K, 5370 kPa, x1 = 0.8 | 156.04 | –
523.15 K, 5423 kPa, x1 = 0.2 | 290.54 | –
523.15 K, 5483 kPa, x1 = 0.2 | 306.83 | –
523.15 K, 5508 kPa, x1 = 0.2 | 311.06 | –
523.15 K, 5518 kPa, x1 = 0.5 | 165.14 | –
523.15 K, 5551 kPa, x1 = 0.2 | 318.77 | –
523.15 K, 5586 kPa, x1 = 0.8 | 169.78 | –
523.15 K, 5668 kPa, x1 = 0.8 | 176.03 | –
523.15 K, 5707 kPa, x1 = 0.2 | 341.26 | –
523.15 K, 5707 kPa, x1 = 0.5 | 182.85 | –
523.15 K, 5717 kPa, x1 = 0.9 | 189.45 | –
523.15 K, 5731 kPa, x1 = 0.2 | 344.05 | –
523.15 K, 5763 kPa, x1 = 0.8 | 180.83 | –
523.15 K, 5911 kPa, x1 = 0.9 | 202.38 | –
523.15 K, 5913 kPa, x1 = 0.5 | 200.39 | –
523.15 K, 5925 kPa, x1 = 0.8 | 193.16 | –
523.15 K, 6011 kPa, x1 = 0.5 | 210.22 | –
523.15 K, 6117 kPa, x1 = 0.5 | 224.05 | –
523.15 K, 6195 kPa, x1 = 0.9 | 220.68 | –
523.15 K, 6235 kPa, x1 = 0.5 | 241.5 | –
523.15 K, 6236 kPa, x1 = 0.8 | 213.85 | –
523.15 K, 6242 kPa, x1 = 0.2 | 378.64 | –
523.15 K, 6294 kPa, x1 = 0.5 | 250.69 | –
523.15 K, 6320 kPa, x1 = 0.8 | 219.62 | –
523.15 K, 6339 kPa, x1 = 0.2 | 383.45 | –
523.15 K, 6353 kPa, x1 = 0.5 | 259.74 | –
523.15 K, 6399 kPa, x1 = 0.9 | 233.06 | –
523.15 K, 6454 kPa, x1 = 0.9 | 236.53 | –
523.15 K, 6480 kPa, x1 = 0.5 | 270.56 | –
523.15 K, 6513 kPa, x1 = 0.9 | 240.93 | –
523.15 K, 6560 kPa, x1 = 0.2 | 391.28 | –
523.15 K, 6567 kPa, x1 = 0.9 | 244.24 | –
523.15 K, 6580 kPa, x1 = 0.8 | 234.7 | –
523.15 K, 6628 kPa, x1 = 0.5 | 282.38 | –
523.15 K, 6748 kPa, x1 = 0.8 | 245.34 | –
523.15 K, 6923 kPa, x1 = 0.5 | 298.67 | –
523.15 K, 6963 kPa, x1 = 0.8 | 258.57 | –
523.15 K, 7242 kPa, x1 = 0.8 | 272.53 | –
523.15 K, 7295 kPa, x1 = 0.9 | 282.01 | –
523.15 K, 7431 kPa, x1 = 0.5 | 320 | –
523.15 K, 7549 kPa, x1 = 0.5 | 325.27 | –
523.15 K, 7577 kPa, x1 = 0.2 | 418.71 | –
523.15 K, 7600 kPa, x1 = 0.8 | 288.38 | –
523.15 K, 7736 kPa, x1 = 0.9 | 301.69 | –
523.15 K, 7896 kPa, x1 = 0.8 | 299.2 | –
523.15 K, 8097 kPa, x1 = 0.5 | 344.56 | –
523.15 K, 8118 kPa, x1 = 0.9 | 312.33 | –
523.15 K, 8453 kPa, x1 = 0.8 | 315.37 | –
523.15 K, 8992 kPa, x1 = 0.9 | 334.04 | –
523.15 K, 9070 kPa, x1 = 0.5 | 372.89 | –
523.15 K, 9148 kPa, x1 = 0.8 | 333.86 | –
523.15 K, 9669 kPa, x1 = 0.8 | 345.38 | –
523.15 K, 10260 kPa, x1 = 0.9 | 354.13 | –
523.15 K, 10494 kPa, x1 = 0.5 | 398.14 | –
523.15 K, 10826 kPa, x1 = 0.8 | 361.95 | –
523.15 K, 11137 kPa, x1 = 0.2 | 470.39 | –
523.15 K, 12130 kPa, x1 = 0.5 | 417.24 | –
523.15 K, 14557 kPa, x1 = 0.5 | 440.97 | –
523.15 K, 15550 kPa, x1 = 0.9 | 407.31 | –
523.15 K, 15764 kPa, x1 = 0.5 | 451.29 | –
523.15 K, 16344 kPa, x1 = 0.8 | 418.23 | –
523.15 K, 16569 kPa, x1 = 0.2 | 509.61 | –
523.15 K, 19192 kPa, x1 = 0.5 | 468.18 | –
523.15 K, 25897 kPa, x1 = 0.2 | 547.05 | –
523.15 K, 26649 kPa, x1 = 0.8 | 466.73 | –
523.15 K, 33702 kPa, x1 = 0.5 | 519.37 | –
523.15 K, 36508 kPa, x1 = 0.8 | 496.15 | –
523.15 K, 39812 kPa, x1 = 0.2 | 581.35 | –
533.15 K, 1342 kPa, x1 = 0.8 | – | 22.51
533.15 K, 1590 kPa, x1 = 0.2 | – | 24.92
533.15 K, 2034 kPa, x1 = 0.8 | – | 36.67
533.15 K, 2979 kPa, x1 = 0.8 | – | 58.39
533.15 K, 3245 kPa, x1 = 0.2 | – | 52.98
533.15 K, 3545 kPa, x1 = 0.8 | – | 73.76
533.15 K, 3768 kPa, x1 = 0.9 | 83.34 | –
533.15 K, 4255 kPa, x1 = 0.2 | – | 91.37
533.15 K, 4552 kPa, x1 = 0.8 | 106.35 | –
533.15 K, 4745 kPa, x1 = 0.2 | – | 114.3
533.15 K, 4839 kPa, x1 = 0.9 | 123.29 | –
533.15 K, 5078 kPa, x1 = 0.9 | 134.05 | –
533.15 K, 5281 kPa, x1 = 0.2 | 150.27 | –
533.15 K, 5454 kPa, x1 = 0.8 | 140.24 | –
533.15 K, 5541 kPa, x1 = 0.2 | 175.53 | –
533.15 K, 5638 kPa, x1 = 0.2 | 189.54 | –
533.15 K, 5660 kPa, x1 = 0.9 | 163.88 | –
533.15 K, 5720 kPa, x1 = 0.8 | 155.97 | –
533.15 K, 5833 kPa, x1 = 0.2 | 219.99 | –
533.15 K, 5973 kPa, x1 = 0.8 | 169.7 | –
533.15 K, 5993 kPa, x1 = 0.2 | 245.35 | –
533.15 K, 6071 kPa, x1 = 0.8 | 175.94 | –
533.15 K, 6078 kPa, x1 = 0.2 | 259.07 | –
533.15 K, 6109 kPa, x1 = 0.2 | 262.77 | –
533.15 K, 6137 kPa, x1 = 0.9 | 189.36 | –
533.15 K, 6162 kPa, x1 = 0.2 | 272.22 | –
533.15 K, 6177 kPa, x1 = 0.8 | 180.74 | –
533.15 K, 6285 kPa, x1 = 0.2 | 290.39 | –
533.15 K, 6384 kPa, x1 = 0.8 | 193.07 | –
533.15 K, 6395 kPa, x1 = 0.9 | 202.28 | –
533.15 K, 6426 kPa, x1 = 0.2 | 306.67 | –
533.15 K, 6463 kPa, x1 = 0.2 | 310.9 | –
533.15 K, 6550 kPa, x1 = 0.2 | 318.61 | –
533.15 K, 6727 kPa, x1 = 0.9 | 220.58 | –
533.15 K, 6761 kPa, x1 = 0.8 | 213.75 | –
533.15 K, 6844 kPa, x1 = 0.2 | 341.09 | –
533.15 K, 6859 kPa, x1 = 0.8 | 219.51 | –
533.15 K, 6879 kPa, x1 = 0.2 | 343.88 | –
533.15 K, 6955 kPa, x1 = 0.9 | 232.95 | –
533.15 K, 7014 kPa, x1 = 0.9 | 236.41 | –
533.15 K, 7092 kPa, x1 = 0.9 | 240.81 | –
533.15 K, 7159 kPa, x1 = 0.9 | 244.12 | –
